One series deals with MDA-MB-231 cell line. Description: Sensitivity to doxorubicin, CCK8 assay, MDA-MB-231. To be noted: MDA-MB-231, doxorubicin 10 μM to zero, 10 hrs, no ANT2 shRNA. Format: cell-based, human. The protocol:
The MDA-MB-231 cell line which has a predominant proportion of progenitor cells (CD44+/CD24−) was treated with 10-fold serial dilutions of doxorubicin, a widely used anticancer agent starting from 10 μM to zero, followed by incubation (10 hrs). The assay was conducted in the same manner as in Example 6.
On the technique in general: Tetrazolium assays rely on reduction of a dye to a coloured formazan, in cell work by metabolically active cells.

Series [1] deals with breast cancer cell line MCF7. Description: Sensitivity to doxorubicin, CCK8 assay, MCF7. Format: cell-based. To be noted: MCF7 progenitor cells (CD44+/CD24−) vs mixed population. The protocol:
The breast cancer cell line MCF7, which has a minor proportion of progenitor cells (CD44+/CD24−), was treated with various concentrations of doxorubicin, widely used for the treatment of breast cancer, after which apoptosis was quantitatively analyzed using a CCK8 assay.

The next series relates to DR4, DR5, DcR1 and DcR2. Description: Expression of TRAIL receptors by Western blots, MCF7. Format: cell-based. To be noted: MCF7, pre-treatment with p53 inhibitor. How it is done: The breast cancer cell lines MCF7 and MDA-MB-231, which are different in sensitivity to TRAIL from each other, were analyzed for expression levels of the receptors DR4, DR5, DcR1, and DcR2, all binding to TRAIL, by Western blots.
Upon the introduction of ANT2 shRNA, expression patterns of TRAIL receptors were examined, and the results are given in FIG. 26B. […] In T47D and BT474 cell lines, which are known to have TRAIL resistance, the same effects as in MCF7 were observed. That is, the introduction of ANT2 shRNA increased the expression of DR4 and DR5, but decreased the expression of DcR1 and DcR2 (FIG. 26C).
In addition, an experiment was performed to reconfirm that the introduction of ANT2 shRNA induces the expression and activity of p53, thus up-regulating the TRAIL receptors DR4 and DR5.
(A western blot detects proteins with antibodies after separation by electrophoresis.)

The subject of the next series is MCF7 cells. Kind of series: Sensitivity to TRAIL, CCK8 assay, MCF7. Format: cell-based. How it is done: (§1) As breast cancer cell lines in this experiment, MCF7 resistant to TRAIL, and MDA-MB-231 highly sensitive to TRAIL were employed. MCF7 and MDA-MB-231 were treated with TRAIL at various concentrations after which cell death was analyzed with a CCK8 reagent. The CCK8 assay is a cell viability assay. Specifically, 100 μL of a cell suspension was placed onto each well (1×10^4 cells/well). The cells were treated with 10-fold serial dilutions of TRAIL starting from 1 μg/mL to zero, followed by incubation for 12 hrs. After the addition of 10 μL of the CCK8 reagent, the cells were incubated for a proper time (4 hours) in a CO2 incubator and measured for absorbance at 450 nm to analyze cell death.
However, the introduction of ANT2 shRNA into MCF7 cells induced apoptosis (−25%). […] As for a negative control, it was PBS for TRAIL, and sc shRNA (scrambled shRNA) for ANT2 shRNA.
After being treated with TRAIL alone, ANT2 shRNA alone, and TRAIL and ANT2 shRNA in combination, MCF7 cells, resistant to TRAIL, were examined for apoptosis, and the results are shown in FIG. 24C.
Furthermore, treatment with the p53 inhibitor (pifithrin-alpha) suppressed the up-regulation of TRAIL-mediated apoptosis by ANT2 shRNA, which confirmed that the introduction of ANT2 shRNA induced the expression and activity of p53, leading to an increase in sensitivity to TRAIL. The cell death was quantified using a CCK8 assay, with the use of PBS as a negative control for the p53 inhibitor (FIG. 28).

Series [2] deals with breast cancer cells (MDA-MB-231). Kind of series: Direct apoptosis, PI and Annexin V staining, FACS. The following applies: 48 hours from transfection. Format: cell-based, human. The protocol:
To investigate whether apoptosis could induced directly by ANT2 siRNA, the present inventors performed staining with propidium iodide (PI) and Annexin V.
Particularly, the cells were transfected respectively with ANT2 siRNA and scrambled siRNA, followed by culture for 24-48 hours. The cells were washed with PBS, to which PI and Annexin V were added. After reaction at room temperature for 15 minutes, […] was measured by FACS.

The subject of the next series is MDA-MB-231 cells. Description: Sensitivity to TRAIL, CCK8 assay, MDA-MB-231. Format: cell-based, human. To be noted: MDA-MB-231, TRAIL at various concentrations, 12 hrs. How it is done: as §1
For series [3], the system named is breast cancer cell lines T47D and BT474. Description: Sensitivity to TRAIL, CCK8 assay, T47D and BT474. Format: cell-based. To be noted: T47D and BT474, TRAIL alone. An excerpt: The same results as MCF7 were detected from the breast cancer cell lines T47D and BT474, both known to be resistant to TRAIL (FIG. 25A). For this, a CCK8 assay was employed to quantify the apoptosis.

The next series relates to MCF7 tumor. Description: In vivo tumor growth of MCF7 transplanted into nude mice; RT-PCR of TRAIL receptors in tumors. The arrangement: species or system Balb/c nude mice. The following applies: TRAIL alone, 10 mg/kg intraperitoneally, three treatments over 45 days. The protocol:
The breast cancer cell line MCF7 resistant to TRAIL was transplanted into immunedeficient Balb/c nude mice. When a tumor grew to a volume of 100 mm^3, they were treated with ANT2 shRNA and TRAIL. In this regard, TRAIL was intraperitoneally injected (10 mg/kg) while ANT2 shRNA was directly injected into the tumor (100 μg; supplemented 200 μl Lipofectamine™2000). At this time, Lipofectamine™2000 was used to deliver ANT2 shRNA into tumor cells. After three treatments over 45 days, the size of tumor was monitored. A same volume of PBS and sc shRNA was used as respective negative controls for TRAIL and […]. On 45th day, the animal models were subjected to euthanasia and the tumors were excised.

For series [4], the system named is breast cancer cell lines T47D and BT474. Description: Western blots of apoptosis-induced proteins (PARP, caspase-8/9/7, Bid, cytochrome C). Format: cell-based. To be noted: TRAIL alone. An excerpt: The increased sensitivity to TRAIL was reconfirmed to be attributed to the knockdown of ANT2 by shRNA. […] The empty vector pcDNA was introduced as a negative control for pcDNA-ANT2. When ANT2 shRNA increased sensitivity to TRAIL to induce apoptosis, the concurrent events of intracellular proteins (cleavage of PARP protein, cleavage of caspase-8/9/7, and truncation of Bid proteins) were detected by Western blots.
Because mitochondria play an important role in the regulation of apoptosis, cytochrome C, which is released from mitochondria to cytoplasm, was quantitatively monitored upon the ANT2 shRNA-triggered, TRAIL-mediated apoptosis. The mitochondrial protein COX IV was used as a loading control to guarantee the use of mitochondrial proteins in the same amount. No changes in the pattern of apoptosis-induced proteins were observed when TRAIL was used alone. […] These changes of intracellular protein patterns confirmed that ANT2 shRNA enhanced TRAIL-mediated apoptosis.

Data on 5 molecules can be found in US8399426B2, “Method for treating breast cancer using adenine nucleotide translocator 2 (ANT2) siRNA or ANT2 shRNA” (Bioinfra Inc., priority 2006, dated 2013).

In the case of `COc1cccc2c1C(=O)c1c(O)c3c(c(O)c1C2=O)C[C@@](O)(C(=O)CO)C[C@@H]3O[C@H]1C[C@H](N)[C@H](O)[C@H](C)O1` [doxorubicin], the results for the sensitivity to doxorubicin result (in the series with MDA-MB-231 cell line; in series [1]) were “neither progenitor cells (CD44+/CD24−) nor the non-progenitor cells were sensitive” and “less sensitive”, respectively.

Consider `Cc1ccc(C(=O)Cn2c3c(sc2=N)CCCC3)cc1` [pifithrin-alpha, reference compound], for which the “up-regulation of DR4 and DR5 by ANT2 shRNA” value with DR4, DR5, DcR1 and DcR2 is “suppressed”. Besides, the “up-regulation of TRAIL-mediated apoptosis by ANT2 shRNA” value in the series on MCF7 cells (MCF7, treatment with p53 inhibitor, CCK8) is given as “suppressed”.

On to “ANT2 siRNA-2: ANT2 siRNA for comparison, SEQ ID NO: 14, 5′-CUGACAUCAUGUACACAGG-3′ (listed as RNA, chemistry not given here)”, for which the “apoptosis, comparison among ANT2 siRNA, ANT2 siRNA-2 and ANT2 siRNA-3” value in series [2] is “consistent”.

Take “ANT2 siRNA-3: ANT2 siRNA for comparison, SEQ ID NO: 15, 5′-GAUUGCUCGUGAUGAAGGA-3′ (listed as RNA, chemistry not given here)”: in [2], the “apoptosis, comparison among ANT2 siRNA, ANT2 siRNA-2 and ANT2 siRNA-3” value is “consistent”.

B1: TRAIL: TRAIL/apo2 ligand, a member of tumor necrosis factor, can selectively kill cancer cells (protein, UniProt P50591 1-281, looked up)
Tumor necrosis factor ligand …: MAMMEVQGGPSLGQTCVLIVIFTVLLQSLCVAVTYVYFTNELKQMQDKYSKSGIACFLKEDDSYWDPNDEESMNSPCWQVKWQLRQLVRKMILRTSEETISTVQEKQQNISPLVRERGPQRVAAHITGTRGRSNTLSSPNSKNEKALGRKINSWESSRSGHSFLSNLHLRNGELVIHEKGFYYIYSQTYFRFQEEIKENTKNDKQMVQYIYKYTSYPDPILLMKSARNSCWSKDAEYGLYSIYQGGIFELKENDRIFVSVTNEHLIDMDHEASFFGAFLVG
For the molecule B1, the TRAIL-mediated apoptosis result with MDA-MB-231 cells is reported as “induced”; in the series on MCF7 cells (MCF7, TRAIL at various concentrations, 12 hrs), “did not work”. In addition, in [3], the “response to TRAIL” value is “resistant”. In addition, the apoptosis result with MCF7 cells (MCF7, TRAIL 100 ng/mL) is reported as “not induced to undergo apoptosis”. The tumor growth entry in the series on MCF7 tumor is reported as “no significant influences”. In series [4], the “changes in the pattern of apoptosis-induced proteins” value is on record as “No changes”.
